# Laboratory results: patent publication US11324720B2, “Antiproliferative DNA polymerase inhibitor” (NEW YORK MEDICAL COLLEGE, priority 2018, dated 2022)
# How the values were obtained:
# Assay type in all cases: cell-based, human
# [1] = system: BxPC-3 cells; assay: DNA fiber fluorography dual labeling (IdU/CldU)
# From the text: (§1) In our search for Pol δ inhibitors, we focused on the identification of inhibitors that can inhibit Pol δ when it is actively replicating DNA. DNA fiber fluorography with dual labeling technique^24 provides a possibility that we can analyze the effect of zelpolib on ongoing DNA replication at a single molecule level. Both IdU and CldU are halogenated thymidine analogs that can be incorporated into DNA. Subsequent DNA fiber spreading and antibody detection are used to directly visualize the replicated DNA fiber. The incorporation of IdU gives rise to red fibers and CldU produces green fibers with subsequent antibody detection^24. Therefore, in this assay, the cells were first incubated with IdU for 20 minutes in the absence of zelpolib (FIG. 3B) to establish ongoing DNA replication and the basal replication rates of each individual DNA fibers. Subsequently, CldU were added to cell culture either with or without simultaneous addition of zelpolib. DNA replication were allowed for an additional hour. […] In order to be certain that this inhibition was not cell line dependent, we conducted an identical experiment on a triple-negative breast cancer cell line as well. […] The DNA fibers (FIG. 3C) from a single field of view (FIG. 9) were realigned for visual comparison.
# (§2) To analyze the effect of zelpolib, DNA fiber fluorography was used with dual labeling technique as reported. Cells were seeded in 6-well plates (Cellstar) and allowed to attach for 24 hours before pulse labeled with 25 μM IdU for 20 min. Subsequently, cells were washed three times with PBS and pulse labeled with 250 μM of CldU (Sigma) for 60 min in the presence or absence of zelpolib. Cell lysis and fiber spreading were conducted according to Schwab & Niedzwiedz. IdU and CldU were detected by primary mouse anti-BrdU antibody (BD biosciences, 1:25) and rat anti-BrdU antibody (Abcam, 1:200) and secondary fluorescent antibodies Alexa anti-mouse 594 (ThermoFisher scientific, 1:625) and Alexa anti-rat 488 (ThermoFisher scientific, 1:200). DNA fibers were imaged on fluorescence microscope and fiber lengths were measured using Image-J software. Statistics were calculated using GraphPad prism software.
# [2] = system: HCC1395 cells; assay: DNA fiber fluorography dual labeling (IdU/CldU); conditions: all three concentrations, zelpolib added with CldU for 60 min
# From the text: as §1, §2
# [3] = system: HCC1395 cells; assay: MTT assay with PARP inhibitors with or without zelpolib; conditions: 2.5 μM zelpolib, 48 hrs
# Description: However, there have been minimal clinical benefits for HR-proficient cancers^37-41. Since zelpolib can inhibit HR, we explored the effect of zelpolib in combination with PARP inhibitors on HR-proficient cancer cells. The hypothesis is that zelpolib will lead to an HR-defect through inhibition of Pol δ and render HR-proficient cells sensitive to PARP inhibition. […] The cells were treated with increasing concentrations of PARP inhibitor Niraparib (FIG. 5B) or Rucaparib (FIG. 5C) in the absence or presence of 2.5 μM zelpolib for 48 hrs. The number of cells were then analyzed by MTT assay.
# Human cancer cells (5×10^3-7.5×10^3) were initially seeded in 96-well plates (Cellstar) containing 0.2 ml media per well. After 24 hrs, these cells were treated with variable concentrations drug combinations for 48-72 hrs. Subsequently, 4,5-dimethylthiazol-2-yl-2,5-diphenyltetrazolium bromide (MTT) (20 μl of 5 mg/ml) was added to each well for 3 hrs. Formazan crystals were then dissolved in 150 μl DMSO and optical density was read at 490 nm^25. All experiments were performed in triplicates. Results were analyzed by GraphPad Prism. Data represent mean value±SEM for each concentration of inhibitor combinations.
# [4] = system: HEK 293T cells; assay: Two plasmid DR-GFP/I-SceI double strand break repair (homologous recombination) assay
# From the text: In addition to being indispensable for the duplication of chromosomes, Pol δ also plays critical roles in various DNA repair pathways^32. It has been shown that Pol δ is the preferred polymerase for the D-loop extension during homologous recombination repair^33. Thus, we investigated the effect of zelpolib on HR efficiency. We used the two plasmid DR-GFP assay developed by Nakanishi et al^34, which is a modified version of the initial method^35. The first plasmid contains a mutant GFP that has lost the ability to fluoresce. The second plasmid contains the coding region of a restriction enzyme, I-SceI. The co-transfection of the two plasmids will result in the expression of I-SceI, which can digest the DR-GFP plasmid at the mutation site leading to the formation of a double strand break. […] Therefore, the percentage of fluorescent cells is the readout of the efficacy of HR. […] The efficacy of HR was analyzed about 40 hours later by flow cytometry.
# The efficacy of homologous recombination was analyzed by a two-plasmids system according to published protocol^34,35. […] Cellular fluorescence for GFP was measured by flow cytometry (Beckman coulter, MoFlo XDP). About 32,000 cells were analyzed per sample. […] The experiment was repeated three more times and statistics were calculated using GraphPad prism software.
smiles,measurement,setting,value
COC(=O)c1cc(-c2ccccc2)sc1NC(=S)NNC(=O)CCc1ccc(O)c(O)c1 [zelpolib],inhibition of DNA fiber extension,"[1]; 20 μM, 60 minutes exposure, cell line not stated",about 40%
same,inhibition of ongoing cellular DNA replication (green/red fiber length ratio),"[1]; BxPC-3, zelpolib added with CldU for 60 min",concentration dependent inhibition of ongoing cellular DNA replication
same,cellular uptake time,[1]; inferred from fiber inhibition at 20 μM with 60 minutes total exposure,less than 30 minutes
same,inhibition of ongoing DNA replication (green/red fiber length ratio),[2],significant inhibition of ongoing DNA replication
same,sensitisation of HCC1395 cells to Rucaparib,[3]; difference statistically significant up to 25 μM,behaved similarly to zelpolib and Niraparib combination
same,sensitisation of HCC1395 cells to Niraparib,[3]; differences significant up to 20 μM,increased the sensitivity of HCC1395 cells to Niraparib across the whole range of concentrations
same,reduction in HR efficacy,[4]; 20 μM zelpolib,comparable to those induced by siRNA knockdown of BRCA1 or BRCA2 individually
same,inhibition of homologous recombination (percentage of GFP fluorescent cells),"[4]; two concentrations, about 40 hours",dose-dependent inhibition of HR
